Laboratory results reported in patent US20250228880A1, “REDOX-ACTIVE COMPOUNDS AND RELATED COMPOUNDS, COMPOSITIONS, METHODS AND SYSTEMS” (CALIFORNIA INSTITUTE OF TECHNOLOGY, priority 2008, published 2025).
Values joined by “and” are separate entries in the source; they are usually repeats but may differ in a detail not shown here. Identical values can stand only once. “Also recorded” adds a separate entry of the source. Like-named read-outs stand apart in the source and are kept apart here.

How the values were obtained:
[1] = test system: P. aeruginosa PA14 Δphz mutant; assay: Anaerobic survival in bulk electrolysis bioreactor (viable cell counts, CFU); type: cell-based, Pseudomonas aeruginosa; settings: for Support survival?: anaerobic survival of Δphz over 7 days, 10^9 cells/mL, 20 mM D-glucose, about 90 µM compound, electrode at +0.2 V vs. NHE, CFU on LB agar
Procedure: Microbiological methods. P. aeruginosa strain UCBPP-PA14 with deletions of two redundant phenazine biosynthetic operons phzA1-G1 and phzA2-G2, hereafter referred to as the Δphz mutant, was cultivated aerobically at 37° C. in Luria-Bertani (LB) broth (Fisher Scientific) to stationary phase. A washing procedure using centrifugation to collect cell pellets and vortexing to resuspend cell pellets in sterile PBS buffer (recipe) was repeated twice. For centrifugation, the cultures were split into 50 mL sterile centrifuge tubes and centrifuged for 8 minutes at 6000 g, at 4° C. After washing, cell culture was concentrated by resuspending pellets in PBS buffer with one-tenth of original cultural volume. Optical density of this culture was measured at 500 nm using Beckman Coulter D U 800 spectrophotometer. Dilution was performed to yield the OD reading below 0.8. The culture aliquots were then transferred into electrochemical cells with oxygen-free minimal salt medium (20 mM glucose as the carbon source) to serve as the cultures electrochemical studies (see next section for details).
Survival experiments in electrochemical setup. Electrochemical measurements were performed with a Gamry G- potentiostat. All experiments were conducted in an O2— and H2— free glovebox (MBraun) at 30° C. and in the dark. All measured potentials were referenced to a Ag/AgCl electrode (RE-5B, BASi). Reported potentials were referenced to the Normal Hydrogen Electrode NHE (V vs. NHE=V vs. Ag/AgCl+207 mV) to permit comparisons with other studies. A graphite rod (6.15 mm dia ×152 mm long, Alfa Aesar) was used as the working electrode, and the operating surface area was 6 cm^2. The counter electrode was made from a platinum mesh (Alfa Aesar) soldered to a copper wire. The working electrode was in a sample compartment together with the reference electrode. The counter electrode was in another compartment isolated from the working electrode. The two compartments were joined by a fritted glass junction. The controlled potential bulk electrolysis was set at 0 V vs. Ag/AgCl. This potential is mild enough to only oxidize reduced phenazines, but not other components in the cultural medium.
To test whether phenazine electron shuttling can help P. aeruginosa survive, 100 µM phenazine, 20 mM glucose, high or low initial cell densities in the range of 10^9 cells/mL or 10^7 cells/mL were added to the medium to give total 100 mL suspension in the compartment along with the working and reference electrodes, and the potential was applied at 0 V (vs. Ag/AgCl) for 7 days. Cell suspension aliquots were taken as a function of time for viable colony counts. Current and charge transferred were recorded continuously. Cultures without phenazine, or without the potential applied, or without both were served as the controls. To confirm that glucose is used as the carbon source in the case of survival, experiments with or without glucose addition were compared.
To investigate the effect of redox-active small molecules on anaerobic survival of redox active organisms, Applicants tested the effect of redox-active molecule in P. aeruginosa PA14. In particular, Applicants assembled bulk electrolysis-based glass bioreactors housed within an O2— and H2— free glovebox (MBraun) and controlled by a multichannel potentiostat (Gamry, Series G 300) outside the glovebox. Each bioreactor held a graphite rod working electrode (Alfa Aesar) with an operating surface area of 6 cm^2, a Ag/AgCl reference electrode (BASi, RE-5B) with a constant potential of +0.207 V vs. the normal hydrogen electrode (NHE), and about 100 mL MOPS culture medium [100 mM MOPS at pH 7.2, 93 mM NH4Cl, 43 mM NaCl, 2.2 mM KH2PO4, 1 mM MgSO4, […]](modified from ref. (Palmer, K. L., L. M. Mashburn, P. K. Singh, and M. Whiteley. 2005. Cystic fibrosis sputum supports growth and cues key aspects of Pseudomonas aeruginosa physiology. Journal of Bacteriology 187:5267-5277)). […]

[2] = test system: P. aeruginosa PA14 Δphz mutant; assay: Reduction by PA14 (colour change in survival control experiments without poised potential); type: cell-based, Pseudomonas aeruginosa; settings: intracellular reduction by Δphz cells
[3] = literature values (footnotes a, c, d, e); oxidized form; cited from earlier work
[4] = Reduction potential E0' (cyclic voltammetry); type: physicochemical; settings: measured in aqueous solution at pH 7 in this study (footnote b)
[5] = test system: Pseudomonas aeruginosa PA14 phenazine null mutant; assay: Colony morphology assay; type: cell-based; settings: pyocyanin added to the growth medium (50 μM HPLC-purified, 1% tryptone, 1% agar plates)
Procedure: In particular, in FIG. 8 is shown how the phenazine null mutant forms smooth colonies in the presence of exogenous phenazines. […] Image was taken after 5 days.
Colony morphology assay: colony morphology assay was performed with Pseudomonas aeruginosa and Streptomyces coelicolor as described herein below: a) Pseudomonas aeruginosa PA 14: Strains were grown in LB medium to late exponential phase, then 10 μl were spotted onto 1% agar plates containing 10 g/L Tryptone Broth, supplemented with […] Congo Red and […] Coomassie Blue as described previously (L. Friedman, R. Kolter, Mot Microbial 51, 675 (2004)). Plates were incubated at room temperature. Colonies were imaged using an Epson Perfection 2400 Photo Scanner at 600 dpi resolution, Nikon stereomicroscope or a digital microscope (Proscope). b) Streptomyces coelicolor A3(2): 10 µl of a spore suspension in water was spotted onto plates with R5-medium. Plates were incubated at room temperature for six days. Colonies were imaged using a Nikon stereomicroscope.

SMILES	Support survival? [1]	Reduction by PA14? [2]	E^0′ (vs. NHE) [3]	drop of viable cells ([1]; regardless of bioreactor experimental conditions, 7 days)	E^0′ (vs. NHE) [4]	survival vs. growth at low cell density ([1]; viable cells at 10^7 CFU/mL, data not shown)	drop of viable cells from the original CFU ([1]; without D-glucose, with PYO and the poised potential, by day 6)	colony morphology of the phenazine null mutant [5]	Support survival? ([1]; listed as paraquat)	Reduction by PA14? ([2]; listed as paraquat)
Oc1cccc2nc3ccccc3nc12 [1-OHPHZ, 1-hydroxyphenazine]	promote anaerobic survival and Yes	Yes	−174^a mV	–	–	–	–	–	–	–
O=C1c2ccc(S(=O)(=O)O)cc2C(=O)c2ccc(S(=O)(=O)O)cc21 [2,6-AQDS]	No	only a small portion of 2,6-AQDS was reduced; also recorded: Yes (very slowly)	−184^d mV	–	–	–	–	–	–	–
O=C(O)Cc1cc(O)ccc1O [HMA, Homogentisic acid]	cannot support Δphz survival and No	–	–	–	–	–	–	–	–	–
CN(C)c1ccc2nc3ccc(=[N+](C)C)cc-3sc2c1 [MB, Methylene blue]	cannot support Δphz survival and No	reduced intracellularly and Yes	+11 mV	3 orders of magnitude	0 mV	–	–	–	–	–
O=C(O)c1cccc2nc3ccccc3nc12 [PCA, phenazine-1-carboxylic acid]	promote anaerobic survival and Yes	Yes	−114^a mV	–	–	–	–	–	–	–
C[n+]1c2ccccc2nc2c([O-])cccc21 [PYO, Pyocyanin]	promote anaerobic survival and Yes	Yes	−40^a mV	–	–	supported only survival but not growth	4 orders of magnitude	smooth compact colonies	–	–
C[n+]1ccc(-c2cc[n+](C)cc2)cc1 [Paraquat]	No	No	−446 mV and −446^e mV	–	–	–	–	–	cannot support anaerobic survival of Δphz	cannot be reduced by Δphz
